Laboratory results as given in patent US8898047B2, “Methods for identifying inhibitors against viruses that use a class I fusion protein” (Janssen Pharmaceuticals NV, priority 2008, dated 2014).

Assays:
RSV = RSV antiviral cellular assay; type: cell-based, hRSV; conditions: for EC50: human respiratory syncytial virus, pEC50 = -log10 EC50 (M), RSV antiviral cellular assay, read-out: In vitro activity (pEC50) (converted); for log reduction in activity on structural modification: reduction of antiviral activity versus parent compound of the Compound Z series
[1] = target: biotin-labeled IQN57 / FITC-labeled C45 (HR1-CTC and HR2) (Human respiratory syncytial virus A, UniProt P03420); conditions: 6HB-formation ELISA, FIG. 3E
Chain of biotin-labeled IQN57 / FITC-labeled C45 (HR1-CTC and HR2) (P03420 476-520): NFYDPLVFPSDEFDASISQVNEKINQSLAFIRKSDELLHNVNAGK
Chain of biotin-labeled IQN57 / FITC-labeled C45 (HR1-CTC and HR2) (P03420 153-209): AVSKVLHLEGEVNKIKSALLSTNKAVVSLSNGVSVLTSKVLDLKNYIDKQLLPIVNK
Description: White streptavidin-coated 96-well plates (NoAb Biodiscoveries, Mississauga, Canada) were blocked with PBS+5% BSA for 1 h and then washed three times with PBS. 10 nM biotin-labeled IQN57 dissolved in PBS+1% BSA was non-covalently bound to the surfaces of the 96-well plate for 30 min and then wells were washed again 3 times with PBS. […] Subsequently, POD-conjugated anti-FITC Fab fragment (1:5000) (Roche Applied Science, Vilvoorde, Belgium) in PBS+1% BSA was administered to the wells and incubated for 30 min. Finally, wells were washed again three times with PBS, Supersignal West Femto chemiluminescent substrate from Pierce (Perbio Science, Erembodegem, Belgium) added and signals were analyzed on a ViewLux UltraHTS microplate reader (Perkin Elmer, Zaventem, Belgium). Assay conditions without addition of biotin-labeled IQN57, FITC-labeled C45, POD-conjugated anti-FITC Fab fragment, or chemiluminescent substrate were included as negative controls or control of background signal in each of the experiments. In addition, assay conditions with saquinavir, Fuzeon® (T20), or the HIV-1-derived HR1 peptide (biotin-labeled IQN36) were used as specificity controls in each experiment.

HR1-derived peptide = conditions: prior art (Cianci et al.); cited from earlier work
[2] = target: IQN57 (HR1 hydrophobic pocket) (Human respiratory syncytial virus A, UniProt P03420); conditions: 30 μM compound, 20° C., HR1 alone
Chain of IQN57 (HR1 hydrophobic pocket) (P03420 153-209): as above
Description: 20 μM biotinylated-IQN57 was immobilized on a Streptavidin-certified sensor chip (GE Healthcare, Diegem, Belgium) surface in PBS at a flow rate of 10 μl/min and a contact time of 7 min. A reference flow cell was used as a control for nonspecific binding and refractive index changes. […] Several PBS+5% dimethylsulfoxide (DMSO; Sigma Aldrich NV, Bornem, Belgium) buffer blanks were injected over the course of an experiment for double referencing. The flow system was washed between sample injections with running buffer containing 50% DMSO, and the immobilized surface was regenerated with one injection of 0.2% sodiumdodecylsulfate for 30 sec. SPR biosensor data were collected on a BIAcore S51. All experiments were conducted at 20° C.

[3] = target: T1, HR1 (IQN57) and HR2 (C45) heptad-repeat peptides (Human respiratory syncytial virus A, UniProt P03420); type: binding, hRSV; conditions: competition assay, FIG. 3C
T1 construct: IQ trimerisation segment (GCN4-pIQI-type coiled coil)
T1 sequence (P03420 153-209): as above
T1 sequence (P03420 476-520): as the sequence (P03420 476-520) above

Structure (SMILES)	EC50 (RSV) [M]	log reduction in activity on structural modification (RSV) [log]	further results
Cc1cccc(NCc2ccc3nc(NCCCN4CCOCC4)n(Cc4nc(C)ccc4O)c3c2)c1 [Compound 2]	2.51e-09	1.3	
O=c1n(Cc2nc3ccccc3n2CCCCO)c2cnccc2n1C1CC1 [BMS433771, reference compound]			Effect on interaction of HR2 (C45) with HR1-CTC (IQN57) [1]: facilitate the interaction of HR2 with the HR1-CTC; Binding to an HR1-derived peptide alone (HR1-derived peptide): relatively weak; Binding to HR1 (IQN57) by SPR [2]: do not bind to the HR1 hydrophobic pocket alone
COc1ccc(C)nc1Cn1c(NCCCN2CCOCC2)nc2ccc(CNc3cc(C)ccc3CCCO)cc21 [Compound 6]	2.51e-09	1.3	
Cc1ccc(CCCO)c(NCc2ccc3nc(N)n(Cc4nc(C)ccc4O)c3c2)c1 [Compound 4]	3.16e-11		log improvement in activity (RSV; removal of the morpholinopropyl group): 0.6 log
Cc1ccc(O)c(Cn2c(NCCCN3CCOCC3)nc3ccccc32)n1 [Compound 3]	1.58e-07		further log decrease in potency (RSV; further truncation of the methylamino-toluene moiety, relative to compound 2): 0.8 log
Cc1ccc(CCCO)c(NCc2ccc3ncn(Cc4nc(C)ccc4O)c3c2)c1 [Compound 5]	1.26e-08	2.6	
Cc1ccc(CCCO)c(NCc2ccc3nc(NCCCN4CCOCC4)n(Cc4nc(C)ccc4O)c3c2)c1 [Compound 1, 2-[6-{[2-(3-hydroxy-propyl)-5-methyl-phenylamino]-methyl}-2-(3-morpholin-4-yl-propylamino)-benzoimidazol-1-ylmethyl]-6-methyl-pyridin-3-ol]			Effect on interaction of HR2 (C45) with HR1-CTC (IQN57) [1]: facilitate the interaction of HR2 with the HR1-CTC; Binding to HR1 (IQN57) by SPR [2]: do not bind to the HR1 hydrophobic pocket alone; Competition with compound X for binding [3]: competed for the same binding pocket
